The values below are quoted from earlier work in article PMC10401651, “Characterization of Uranyl (UO2^2+) Ion Binding to Amyloid Beta (Aβ) Peptides: Effects on Aβ Structure and Aggregation” (ACS Chemical Neuroscience, 2023).

The target in this data set is T1, Aβ42 oligomers (Homo sapiens, UniProt P05067).
T1 construct: Synthetic lyophilized wt Aβ (1–42) peptides, abbreviated as Aβ42; purchased JPT Peptide Technologies (Germany); host or cells: synthetic peptide
The arrangement: method as in PMID 36849796. The conditions noted are these: 0.05% SDS; cited from earlier work.

T1 sequence (P05067 672-713 limits assumed): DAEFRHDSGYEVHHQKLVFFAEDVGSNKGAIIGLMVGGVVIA

For the compound `[Ni+2]` [Ni(II) ions], the “concentration required for full disruption of homogeneous AβO0.05%SDS oligomers” value is listed as 500 mM.
